Tests used:
[1] = system: Digitaria ciliaris; test: Test Example 5: herbicidal effect by foliage application, plastic box (symbol F); format: in vivo; settings: 320 g/ha, 3 weeks after application
How it was run: (§1)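 Seeds were sown in sterilized diluvial soil, covered with about 1.5 cm of soil and grown 14 days in a greenhouse at 25° C. to 30° C. An emulsifiable formulation diluted in water to a set rate was sprayed over foliage, and injury was scored 3 weeks later.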

[2] = system: rapeseed; test: Test Example 5: effect on crop by foliage application, plastic box (symbol g); format: in vivo; settings: 320 g/ha, 3 weeks after application
How it was run: (§2)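 A greenhouse held between 25° C. and 30° C. was used to grow plants sown spot-wise, beneath ~1.5 cm of soil, in boxes of sterilized diluvial soil.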

[3] = system: Lolium multiflorum Lam.; test: Test Example 4: herbicidal effect by soil treatment (symbol K); format: in vivo; settings: 320 g/ha
How it was run: (§3)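 Seeds were sown in sterilized diluvial soil, covered with about 1.5 cm of soil, and the soil surface was sprayed with a water-diluted emulsion of the compound at a predetermined rate. Plants grew in a greenhouse at 25° C. to 30° C.; effects were scored visually 3 weeks after application.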

[4] = system: wheat; test: Test Example 5: effect on crop by foliage application, plastic box (symbol e); format: in vivo; settings: 320 g/ha, 3 weeks after application
How it was run: as §2

[5] = system: Scirpus juncoides; test: Test Example 1: herbicidal activity, application before weed generation in submerged conditions (symbol B); format: in vivo; settings: application herbicide amount 320 g/ha
How it was run: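 Scores run 0 to 5 by herbicidal ratio, with 5 meaning 90% or more and 0 meaning 5% or lower, read 3 weeks after treatment. Compound was applied as a diluted emulsion to the water surface of submerged alluvial-soil pots on the day weed seeds were sown.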

[6] = system: rapeseed; test: Test Example 4: effect on crop by soil treatment (symbol g); format: in vivo; settings: 320 g/ha
How it was run: (§4)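 Crop seeds, among them rice, wheat, beet and rapeseed, were sown in sterilized diluvial soil and covered with about 1.5 cm of soil. Boxes were kept in a greenhouse at 25° C. to 30° C. for plant growth.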

[7] = system: corn; test: Test Example 5: effect on crop by foliage application, plastic box (symbol c); format: in vivo; settings: 320 g/ha, 3 weeks after application
How it was run: as §2

[8] = system: Chenopodium album; test: Test Example 4: herbicidal effect by soil treatment (symbol O); format: in vivo; settings: 320 g/ha
How it was run: as §3

[9] = system: Digitaria ciliaris; test: Test Example 4: herbicidal effect by soil treatment (symbol F); format: in vivo; settings: 320 g/ha
How it was run: as §3

[10] = system: directly sowed rice plant; test: Test Example 3: effect on crop by foliage application, Wagner pot (symbol b); format: in vivo; settings: application herbicide amount 320 g/ha
How it was run: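 Alluvial soil in a 1/10000-are Wagner pot was flooded to a water depth of 0.1–0.5 cm. Echinochloa crus-galli var. crus-galli, Leptochloa chinensis, Cyperus difformis and rice were sown into it and grown in a greenhouse at 25–30 °C.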

[11] = system: Chenopodium album; test: Test Example 5: herbicidal effect by foliage application, plastic box (symbol O); format: in vivo; settings: 320 g/ha, 3 weeks after application
How it was run: as §1

[12] = system: Veronica persica; test: Test Example 5: herbicidal effect by foliage application, plastic box (symbol R); format: in vivo; settings: 320 g/ha, 3 weeks after application
How it was run: as §1

[13] = system: Avena fatua; test: Test Example 5: herbicidal effect by foliage application, plastic box (symbol I); format: in vivo; settings: 320 g/ha, 3 weeks after application
How it was run: as §1

[14] = system: Avena fatua; test: Test Example 4: herbicidal effect by soil treatment (symbol I); format: in vivo; settings: 320 g/ha
How it was run: as §3

[15] = system: rice; test: Test Example 4: effect on crop by soil treatment (symbol b); format: in vivo; settings: 320 g/ha
How it was run: as §4

[16] = system: Stellaria media; test: Test Example 5: herbicidal effect by foliage application, plastic box (symbol P); format: in vivo; settings: 320 g/ha, 3 weeks after application
How it was run: as §1

[17] = system: Echinochloa crus-galli var. crus-galli; test: Test Example 4: herbicidal effect by soil treatment (symbol H); format: in vivo; settings: 320 g/ha
How it was run: as §3

Row | Compound | F: Digitaria ciliaris, herbicidal effect (criteria 0-5) [1] | g: rapeseed, effect on crop (criteria 0-5) [2] | K: Lolium multiflorum Lam., herbicidal effect grade [3] | e: wheat, effect on crop (criteria 0-5) [4] | Herbicidal effect grade, B: Scirpus juncoides [5] | g: rapeseed, effect grade on crop [6] | c: corn, effect on crop (criteria 0-5) [7] | O: Chenopodium album, herbicidal effect grade [8] | F: Digitaria ciliaris, herbicidal effect grade [9] | effect on crop b (directly sowed rice plant), grade 0-5 [10] | O: Chenopodium album, herbicidal effect (criteria 0-5) [11] | R: Veronica persica, herbicidal effect (criteria 0-5) [12] | I: Avena fatua, herbicidal effect (criteria 0-5) [13] | melting point | I: Avena fatua, herbicidal effect grade [14] | b: directly sowed rice plant, effect grade on crop [15] | P: Stellaria media, herbicidal effect (criteria 0-5) [16] | H: Echinochloa crus-galli var. crus-galli, herbicidal effect grade [17]
1 | CCCON=C(C)CC1CC(O)=C(c2c(C)cc(C)cc2C)C1=O (centres unmarked) [1-123] | 5 (Herbicidal ratio of 90% or more (almost completely withered)) | 5 (Herbicidal ratio of 90% or more (almost completely withered)) | 5 (Herbicidal ratio of 90% or more (almost completely withered)) | 5 (Herbicidal ratio of 90% or more (almost completely withered)) | 4 (Herbicidal ratio of 70% or higher and lower than 90%) | 3 (Herbicidal ratio of 40% or higher and lower than 70%) | 5 (Herbicidal ratio of 90% or more (almost completely withered)) | 0 (Herbicidal ratio of 5% or lower (almost no effect)) | 5 (Herbicidal ratio of 90% or more (almost completely withered)) | 5 (Herbicidal ratio of 90% or more (almost completely withered)) | 0 (Herbicidal ratio of 5% or lower (almost no effect)) | 4 (Herbicidal ratio of 70% or higher and lower than 90%) | 5 (Herbicidal ratio of 90% or more (almost completely withered)) | 123 to 126 °C | 4 (Herbicidal ratio of 70% or higher and lower than 90%) | 5 (Herbicidal ratio of 90% or more (almost completely withered)) | 3 (Herbicidal ratio of 40% or higher and lower than 70%) | 5 (Herbicidal ratio of 90% or more (almost completely withered))
2 | Cc1cc(C)c(C2=C(O)CC(CC(=NOCC(F)(F)F)C3CC3)C2=O)c(C)c1 (centres unmarked) [1-131] | 0 (Herbicidal ratio of 5% or lower (almost no effect)) | 5 (Herbicidal ratio of 90% or more (almost completely withered)) | 5 (Herbicidal ratio of 90% or more (almost completely withered)) | 2 (Herbicidal ratio of 20% or higher and lower than 40%) | 4 (Herbicidal ratio of 70% or higher and lower than 90%) | 4 (Herbicidal ratio of 70% or higher and lower than 90%) | 3 (Herbicidal ratio of 40% or higher and lower than 70%) | 0 (Herbicidal ratio of 5% or lower (almost no effect)) | 4 (Herbicidal ratio of 70% or higher and lower than 90%) | 5 (Herbicidal ratio of 90% or more (almost completely withered)) | 0 (Herbicidal ratio of 5% or lower (almost no effect)) | 4 (Herbicidal ratio of 70% or higher and lower than 90%) | 4 (Herbicidal ratio of 70% or higher and lower than 90%) | 137 to 138 °C | 3 (Herbicidal ratio of 40% or higher and lower than 70%) | 5 (Herbicidal ratio of 90% or more (almost completely withered)) | 0 (Herbicidal ratio of 5% or lower (almost no effect)) | 5 (Herbicidal ratio of 90% or more (almost completely withered))
3 | CON=C(CC1CC(O)=C(c2c(C)cc(C)cc2C)C1=O)C(F)(F)F (centres unmarked) [1-097] | 5 (Herbicidal ratio of 90% or more (almost completely withered)) | 3 (Herbicidal ratio of 40% or higher and lower than 70%) | 2 (Herbicidal ratio of 20% or higher and lower than 40%) | 2 (Herbicidal ratio of 20% or higher and lower than 40%) | 0 (Herbicidal ratio of 5% or lower (almost no effect)) | 3 (Herbicidal ratio of 40% or higher and lower than 70%) | 5 (Herbicidal ratio of 90% or more (almost completely withered)) | 3 (Herbicidal ratio of 40% or higher and lower than 70%) | 0 (Herbicidal ratio of 5% or lower (almost no effect)) |  | 1 (Herbicidal ratio of 5% or higher and lower than 20%) | 3 (Herbicidal ratio of 40% or higher and lower than 70%) | 3 (Herbicidal ratio of 40% or higher and lower than 70%) | 115 to 118 °C | 1 (Herbicidal ratio of 5% or higher and lower than 20%) | 2 (Herbicidal ratio of 20% or higher and lower than 40%) | 0 (Herbicidal ratio of 5% or lower (almost no effect)) | 2 (Herbicidal ratio of 20% or higher and lower than 40%)

Reference: patent US11000033B2, “Ketone or oxime compound, and herbicide” (NISSAN CHEMICAL CORPORATION, priority 2014, dated 2021)
